Laboratory results reported in patent publication US20230117328A1, “METHODS TO TREAT CANCER USING (R)-N-(3-FLUORO-4-((3-((1-HYDROXYPROPAN-2-YL)AMINO)-1H-PYRAZOLO[3,4-B]PYRIDIN-4-YL)OXY)PHENYL)-3-(4-FLUOROPHENYL)-1-ISOPROPYL-2,4-DIOXO-1,2,3,4-TETRAHYDROPYRIMIDINE-5-CARBOXAMIDE” (Array BioPharma Inc., priority 2020, published 2023).
Entries after “also recorded” stand apart in the source; their conditions may differ.

Experiments:
C57BL/6 mice = test: Ocular histopathology (retina) in mice at terminal (Day 38) and recovery (Day 66) necropsy; format: in vivo; settings: for animals affected by swelling of rod and cone processes (incidence and grade): terminal necropsy
Protocol: Eyes were harvested for histopathology assessment from the tumor-naïve groups as the terminal necropsy cohort on Day 38, the last day the 28-day dosing period. Since not all terminal necropsy groups were dosed for the entirety of the 28-day dosing period, some groups effectively experienced a 1-3 week recovery period. Eyes were harvested for histopathology assessment from the tumor-bearing groups as the recovery necropsy cohort on Day 66, the last day of the 28-day recovery period. Since not all recovery necropsy groups were dosed for the entirety of the 28-day dosing period, some of these groups effectively experienced an extended recovery period beyond the 28-day recovery period of an additional 1-3 weeks. […] This finding was only visualized under epifluorescent illumination and was characterized by scattered individual processes that were increased in diameter up to five times the surrounding processes, with increased autofluorescence. […] It remained unclear whether these findings were adverse, as no degenerative changes were observed. If the material affected vision, it would be considered adverse; however, as this study was not designed to test for alterations in vision, adversity could not be determined.
Terminal necropsy from non-tumor-bearing cohorts occurred at 28 days from the start of dosing, and eyes from 4-5 animals in each group were harvested for histopathology assessment. Since not all terminal necropsy groups were dosed for the entirety of the 28-day dosing period, some groups effectively experienced a 1-3 week recovery period. Recovery sacrifice from tumor-bearing cohorts occurred at 28 days after the 28-day dosing period, and eyes from 5 animals in each group were harvested for histopathology assessment. Since not all recovery necropsy groups were dosed for the entirety of the 28-day dosing period, some groups effectively experienced an extended recovery period beyond the 28-day recovery period of 1-3 weeks. Briefly, animals were euthanized by CO2 inhalation and eyes were harvested with forceps and placed in 1.5 mL modified Davidson's Fixative (Electron Microscopy Science, Cat. No. 64133-50, lot no. 190621-08) for up to 24 hours at room temperature. Tissues were then transferred to 1.5 ml 10% neutral buffered formalin (Thermo Scientific, cat. no. 9400-5, lot no. 435456) at room temperature. Fixed tissues were submitted Vet Path Services, Inc. (Mason, Ohio) for histological processing and microscopic evaluation.
Provantis™ pathology software v 10.1.0.1 was utilized for data capture and table generation. Histopathology grades were assigned as grade 1 (minimal), grade 2 (mild), grade 3 (moderate), grade 4 (marked), or grade 5 (severe) based on an increasing extent of change, unless otherwise specified. H&E stained slides were evaluated with standard light microscopy and epifluorescence (450-490 nm excitation).

Aqueous solubility = format: physicochemical
CYP3A4 = CYP3A4 (Homo sapiens, UniProt P08684); test: In vitro metabolism by CYP3A4; format: in vitro ADME
[1] = Tolerability (body weight loss, deaths) in MC-38 tumor-bearing cohorts; format: in vivo; settings: for Deaths (any cause) / Maximum % Body Weight Loss: MC-38 tumor-bearing mice
Protocol: As monotherapy, anti-PD-1 was administered twice weekly (BIW) for 2 consecutive weeks by intraperitoneal (IP) injection at 200 μg/mouse (Days 10, 13, 17, and 20).
Animals were monitored for tumor growth and body weight 2-3 times per week based on outgrowth kinetics. Tumor diameter was measured with digital calipers, and the tumor volume in mm^3 was calculated by the formula: Volume=((width)^2×length)/2. Animals were removed from study if found moribund or if tumor volume exceeded 1500 mm^3.
Any animals remaining with no palpable tumors were scored as cures.
Survival was defined as morbidity, mortality or tumor size exceeding 1500 mm^3.

P-gp = P-gp (Homo sapiens, UniProt P08183); test: P-gp inhibition; format: in vitro ADME
CYP2D6 = CYP2D6 (Homo sapiens, UniProt P10635); test: In vitro metabolism by CYP2D6; format: in vitro ADME
[2] = test system: female Sprague Dawley rats; settings: female, Sprague Dawley, rat, in vivo
in vivo = settings: female, rat
[3] = Tolerability (body weight loss, deaths) in tumor-naive cohorts; format: in vivo; settings: tumor-naive mice
Protocol: Anti-PD-1 was administered twice weekly (BIW) for 2 consecutive weeks by intraperitoneal (IP) injection at 200 μg/mouse. […] Concomitantly, a set of satellite cohorts comprising tumor-naïve mice was treated with the same schedules and doses as indicated above. […]

[4] = Compound 1 50 mg/kg PO BID Days 10-16 (7 days) in combination with anti-PD-1 200 μg IP BIW (Days 10, 13, 17, 20)
[5] = Compound 1 50 mg/kg PO BID Days 10-16 and Days 24-30 (interval schedule) in combination with anti-PD-1 200 μg IP BIW (Days 10, 13, 17, 20)
[6] = Compound 1 50 mg/kg PO BID Days 10-23 (14 days) in combination with anti-PD-1 200 μg IP BIW (Days 10, 13, 17, 20)
[7] = Compound 1 50 mg/kg PO BID Days 10-30 (21 days) in combination with anti-PD-1 200 μg IP BIW (Days 10, 13, 17, 20)
[8] = Compound 1 50 mg/kg PO BID Days 10-37 (28 days) in combination with anti-PD-1 200 μg IP BIW (Days 10, 13, 17, 20)
[9] = Compound 1 monotherapy, 50 mg/kg PO BID Days 10-37 (28 days)
[10] = Compound 1 50 mg/kg PO BID Days 10-16/24-30 in combination with anti-PD-1 200 μg IP BIW
[11] = Compound 1 50 mg/kg PO BID Days 10-16 in combination with anti-PD-1 200 μg IP BIW
[12] = Compound 1 50 mg/kg PO BID Days 10-23 in combination with anti-PD-1 200 μg IP BIW
[13] = Compound 1 50 mg/kg PO BID Days 10-30 in combination with anti-PD-1 200 μg IP BIW
[14] = Compound 1 50 mg/kg PO BID Days 10-37 in combination with anti-PD-1 200 μg IP BIW
[15] = Compound 1 monotherapy, 50 mg/kg PO BID Days 10-37

P-gp, sequence (P08183 whole entry): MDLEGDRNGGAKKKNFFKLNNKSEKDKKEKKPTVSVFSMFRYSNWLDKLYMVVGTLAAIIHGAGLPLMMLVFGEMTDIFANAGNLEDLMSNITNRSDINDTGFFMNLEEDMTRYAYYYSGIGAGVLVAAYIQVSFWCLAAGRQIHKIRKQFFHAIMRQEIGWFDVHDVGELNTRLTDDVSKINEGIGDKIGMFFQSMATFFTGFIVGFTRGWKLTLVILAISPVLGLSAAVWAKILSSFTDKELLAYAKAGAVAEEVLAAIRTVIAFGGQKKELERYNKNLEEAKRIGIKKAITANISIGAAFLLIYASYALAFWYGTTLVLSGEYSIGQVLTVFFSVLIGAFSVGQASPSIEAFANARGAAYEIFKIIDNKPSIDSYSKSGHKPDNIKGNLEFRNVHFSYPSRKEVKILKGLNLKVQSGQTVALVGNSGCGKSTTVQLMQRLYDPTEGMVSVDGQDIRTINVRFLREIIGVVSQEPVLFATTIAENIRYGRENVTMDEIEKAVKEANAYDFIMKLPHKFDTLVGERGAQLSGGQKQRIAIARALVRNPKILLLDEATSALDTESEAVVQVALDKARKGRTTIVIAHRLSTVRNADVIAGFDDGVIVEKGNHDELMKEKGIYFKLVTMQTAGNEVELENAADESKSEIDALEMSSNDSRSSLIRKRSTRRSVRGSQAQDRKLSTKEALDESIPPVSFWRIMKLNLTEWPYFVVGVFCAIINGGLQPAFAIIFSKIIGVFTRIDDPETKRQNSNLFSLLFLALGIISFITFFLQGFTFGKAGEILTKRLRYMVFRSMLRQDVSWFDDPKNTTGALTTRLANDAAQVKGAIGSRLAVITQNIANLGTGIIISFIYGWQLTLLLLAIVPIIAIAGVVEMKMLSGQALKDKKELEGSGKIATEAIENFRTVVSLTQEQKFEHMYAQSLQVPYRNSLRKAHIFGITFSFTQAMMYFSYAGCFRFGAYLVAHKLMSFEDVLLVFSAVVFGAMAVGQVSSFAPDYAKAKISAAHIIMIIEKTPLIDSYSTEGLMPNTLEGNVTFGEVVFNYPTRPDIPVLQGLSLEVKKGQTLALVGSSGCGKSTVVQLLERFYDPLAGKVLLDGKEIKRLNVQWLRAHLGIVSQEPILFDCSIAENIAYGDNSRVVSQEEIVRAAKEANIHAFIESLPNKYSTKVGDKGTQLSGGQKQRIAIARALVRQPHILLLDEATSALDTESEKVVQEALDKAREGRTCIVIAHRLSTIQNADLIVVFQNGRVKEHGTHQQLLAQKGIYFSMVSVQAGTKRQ
CYP3A4, sequence (P08684 whole entry): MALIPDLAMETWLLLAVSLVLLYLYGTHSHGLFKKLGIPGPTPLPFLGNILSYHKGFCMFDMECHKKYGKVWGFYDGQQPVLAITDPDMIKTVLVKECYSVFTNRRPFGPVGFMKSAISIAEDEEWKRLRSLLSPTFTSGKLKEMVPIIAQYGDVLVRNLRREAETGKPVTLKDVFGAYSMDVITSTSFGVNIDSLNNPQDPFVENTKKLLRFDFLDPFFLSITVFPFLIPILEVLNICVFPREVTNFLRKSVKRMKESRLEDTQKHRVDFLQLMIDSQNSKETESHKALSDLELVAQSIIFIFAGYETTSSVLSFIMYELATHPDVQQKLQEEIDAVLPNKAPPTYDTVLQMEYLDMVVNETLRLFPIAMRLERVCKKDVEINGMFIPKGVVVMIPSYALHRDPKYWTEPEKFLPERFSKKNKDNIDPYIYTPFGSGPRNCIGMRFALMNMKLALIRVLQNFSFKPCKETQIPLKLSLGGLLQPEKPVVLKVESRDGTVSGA
CYP2D6, sequence (P10635 whole entry): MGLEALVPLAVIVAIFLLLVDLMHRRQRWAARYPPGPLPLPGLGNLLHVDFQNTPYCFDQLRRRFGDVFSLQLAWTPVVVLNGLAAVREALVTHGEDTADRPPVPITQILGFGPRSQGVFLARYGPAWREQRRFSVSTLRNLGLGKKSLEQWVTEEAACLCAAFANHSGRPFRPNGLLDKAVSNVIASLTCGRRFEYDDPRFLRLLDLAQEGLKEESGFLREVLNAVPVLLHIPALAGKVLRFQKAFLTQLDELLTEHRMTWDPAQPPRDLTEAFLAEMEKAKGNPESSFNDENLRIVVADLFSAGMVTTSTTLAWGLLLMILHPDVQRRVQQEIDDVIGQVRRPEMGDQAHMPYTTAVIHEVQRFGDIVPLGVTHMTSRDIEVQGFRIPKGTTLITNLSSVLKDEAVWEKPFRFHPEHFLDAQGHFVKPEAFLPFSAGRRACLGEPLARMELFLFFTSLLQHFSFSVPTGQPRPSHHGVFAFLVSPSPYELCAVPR

SMILES: CC(C)n1cc(C(=O)Nc2ccc(Oc3ccnc4[nH]nc(N[C@H](C)CO)c34)c(F)c2)c(=O)n(-c2ccc(F)cc2)c1=O [Compound 1, (R)—N-(3-fluoro-4-((3-((1-hydroxypropan-2-yl)amino)-1H-pyrazolo[3,4-b]pyridin-4-yl)oxy)phenyl)-3-(4-fluorophenyl)-1-isopropyl-2,4-dioxo-1,2,3,4-tetrahydropyrimidine-5-carboxamide]
- abnormal ocular observation at recovery sacrifice (unlikely to be related to the test article) (C57BL/6 mice; Day 66, Compound 1 for four weeks in combination with anti-PD-1): unilateral focal atrophy of the outer nuclear layer in Animal 4
- recovery period within which Compound 1-related microscopic retinal changes may be resolved (C57BL/6 mice; mice, histopathology assessment of the retinas): 1-4 week
- animals affected by swelling of rod and cone processes (incidence and grade) (C57BL/6 mice; Compound 1 for four weeks as monotherapy): three animals were minimally affected and two animals were mildly affected
- animals affected by swelling of rod and cone processes (incidence and grade) (C57BL/6 mice; Compound 1 for four weeks in combination with anti-PD-1): four of five animals were minimally affected
- test article-related ocular changes at recovery sacrifice (C57BL/6 mice; tumor-bearing mice, Day 66, 28 days after the 28-day dosing period): no definitively Compound 1-related changes were observed; also recorded: no definitively test article-related changes were observed
- test article-related microscopic changes in retina at terminal necropsy (C57BL/6 mice; tumor-naive mice, Day 38, Compound 1 50 mg/kg BID for 28 days (four weeks), as monotherapy or in combination with anti-PD-1, seen only under epifluorescent illumination, 50 mg/kg): multifocal swelling of the rod and cone processes in the retina; also recorded: multifocal swelling of the Rod and Cone processes in retina
- aqueous solubility (Aqueous solubility): pH dependent
- metabolizing enzyme in vitro (CYP3A4): primarily metabolized by CYP3A4 and CYP2D6
- tolerability of doses and schedules ([1]; MC-38 study, Compound 1 50 mg/kg BID 7-28 days, monotherapy or with anti-PD-1 200 μg BIW, 50 mg/kg): tolerated as monotherapy and in combination with anti-PD-1; also recorded: tolerated at these doses and schedules
- Deaths (any cause) [1, 4]: 0/8
- Maximum % Body Weight Loss [1, 4]: 0.00%
- Deaths (any cause) [1, 5]: 0/8
- Maximum % Body Weight Loss [1, 5]: 0.23%
- Deaths (any cause) [1, 6]: 0/8
- Maximum % Body Weight Loss [1, 6]: 0.00%
- Deaths (any cause) [1, 7]: 0/8
- Maximum % Body Weight Loss [1, 7]: 2.98%
- Deaths (any cause) [1, 8]: 1/8
- Maximum % Body Weight Loss [1, 8]: 0.00%
- Deaths (any cause) [1, 9]: 2/8
- Maximum % Body Weight Loss [1, 9]: 5.17%
- P-gp inhibitor status (P-gp): inhibitor of P-gp
- metabolizing enzyme in vitro (CYP2D6): primarily metabolized by CYP3A4 and CYP2D6
- therapeutic multiples compared to expected exposure at the starting dose of 25 mg QD [2]: 39-78
- STD10 for 14 days once daily dose administration ([2]; 14 days): 100 mg/kg
- NOAEL at 7 days (in vivo): 200 mg/kg
- Deaths (any cause) [3, 10]: 0/5
- Maximum % Body Weight Loss [3, 10]: 0.00%
- Deaths (any cause) [3, 11]: 0/5
- Maximum % Body Weight Loss [3, 11]: 0.00%
- Deaths (any cause) [3, 12]: 1/5
- Maximum % Body Weight Loss [3, 12]: 0.00%
- Deaths (any cause) [3, 13]: 1/5
- Maximum % Body Weight Loss [3, 13]: 0.00%
- Deaths (any cause) [3, 14]: 0/5
- Maximum % Body Weight Loss [3, 14]: 0.00%
- Deaths (any cause) [3, 15]: 0/5
- Maximum % Body Weight Loss [3, 15]: 0.00%
